Results reported in patent US6303761A, “Triaminepentaacetic acid compound and paramagnetic metal complex prepared from using the compound as ligand” (Department of Health The Executive Yuan, Republic of China, priority 1999, dated 2001).
Several values for one entry are separate records, joined by “and”; a condition that tells them apart may be missing. Equal values may be shown once. Read-outs that look alike come from different tables or passages of the source.

What was measured:
pM value, Ca^2+ = settings: pH 7.4, TL 1.1×10^-5, TM 1.0×10^-6 mol dm^-3
pM value, Gd^3+ = settings: pH 7.4, TL 1.1×10^-5, TM 1.0×10^-6 mol dm^-3
pM value, Zn^2+ = settings: pH 7.4, TL 1.1×10^-5, TM 1.0×10^-6 mol dm^-3
pM value, Cu^2+ = settings: pH 7.4, TL 1.1×10^-5, TM 1.0×10^-6 mol dm^-3
[1] = Inner-sphere water molecules (Dy(III)-induced ^17 O-NMR chemical shift, X-ray, deduction); type: physicochemical
Method: The chemical shift (d.i.s.) of the Dy(III)-induced ^17 O is determined by ^17 O-NMR. The relationship between the Dy(III) complex concentration and d.i.s. is shown in equation (14)
d.i.s.=qΔ[Dy(ligand)n ](H2 O)q /[H2 O] (14)
The slope of equation (14) is qΔ/[H2 O], and q refers to the inner-sphere water molecule. […] It is known that Dy(III) can bind with eight water molecules at low concentration, and q is in a linear relationship with the slope.

[2] = cited from earlier work
[3] = Thermodynamic and conditional stability constants of the Ca^2+ complexes (potentiometric titration, program BEST); type: physicochemical; settings: 25.0 ± 0.1° C., aqueous Me4 NNO3, I = 0.10 mol dm^-3
Method: (§1) The pH electrode was calibrated using two standard buffer solutions with pH 7.0±0.05 and pH 4.0±0.05 respectively. The ionic strength was 0.10 mol dm^-3 Me4 NNO3 ((CH3)4 NNO3). […] The titrant used was 0.1 mol dm^-3 NaOH with a titration amount of 0.005 ml/time.
(§2) (1) Direct Potentiometric Titration: The metal ion and ligand is mixed in 1:1 molar ratio.
(§3) (2) Ligand-ligand Competition Titration: The metal ion, ligand, and EDTA is mixed in 1:1:1 molar ratio.
(§4) M: metal ion, L: organic ligand, ML: metal complex The conditional stability constant is defined by equation (2): [formula]
(§5) The relationship between the conditional stability constant and the thermodynamic stability constant is defined by equation (3): [formula]
(§6) K2^H [H^+ ]^2 + . . . }^-1 =KthermαH

[4] = Thermodynamic and conditional stability constants of the Cu^2+ complexes (potentiometric titration, program BEST); type: physicochemical; settings: 25.0 ± 0.1° C., aqueous Me4 NNO3, I = 0.10 mol dm^-3
Method: as §1, §2, §3, §4, §5, §6

[5] = Thermodynamic and conditional stability constants of the Zn^2+ complexes (potentiometric titration, program BEST); type: physicochemical; settings: 25.0 ± 0.1° C., aqueous Me4 NNO3, I = 0.10 mol dm^-3
Method: as §1, §2, §3, §4, §5, §6

[6] = Species distribution of the ligands at various pH values (SPE, SPEPLOT); type: physicochemical; settings: 7.0×10^-3 mol dm^-3 system
Description: The average difference between observed and calculated -log[H^+ ] was <0.04 throughout all titrations.
When pH=7.0, the concentration of [H2 L]^3- is the maximum (97.5%). In the pH 3-5 range, the dominant species is the third protonated species [H3 L]^2-. When pH=3.7, the concentration of [H3 L]^2- is the maximum (87.75%). […] When pH=9.8, the concentration of [HL]^4- is the maximum (77.5%). In the pH 2-3 range, the dominant species is the fourth protonated species [H4 L]^-. When pH=2.3, the concentration of [H4 L]^- is the maximum (60.9%). In the pH range greater than 11, the dominant species is the deprotonated species [L]^5-.
When pH=2.7, the concentration of [H4 L]^- is the maximum (55.9%). In the pH 3.5-7 range, the dominant species is the third protonated species [H3 L]^2-. When pH=5, the concentration of [H3 L]^2- is the maximum (97.7%). In the pH 7-9 range, the dominant species is the second protonated species [H2 L]^3-. When pH=8.1, the concentration of [H2 L]^3- is the maximum (86.5%). […] When pH=9.9, the concentration of [HL]^4- is the maximum (71.6%). In the pH range greater than 12, the dominant species is the deprotonated species [L]^5-. In the pH range less than 2, the dominant species is the totally protonated species [H5 L].
When pH=2.8, the concentration of [H4 L]^- is the maximum (45.9%). In the pH 3.5-7.5 range, the dominant species is the third protonated species [H3 L]^2-. When pH=5.2, the concentration of [H3 L]^2- is the maximum (99.0%). In the pH 8-9.5 range, the dominant species is the second protonated species [H2 L]^3-. When pH=8.6, the concentration of [H2 L]^3- is the maximum (78.8%). In the pH 9.5-11 range, the dominant species is the first protonated species [HL]^4-. When pH=10.1, the concentration of [HL]^4- is the maximum (67.2%). In the pH range greater than 12, the dominant species is the deprotonated species [L]^5-. In the pH range less than 2, the dominant species is the totally protonated species [H5 L].

[7] = Protonation constants of the organic ligands (potentiometric titration, program PKAS); type: physicochemical; settings: for pKa: aqueous me4nno3, 25.0 ± 0.1° C., aqueous Me4 NNO3, I = 0.10 mol dm^-3
Method: The ionic strength was 0.10 mol dm^-3 Me4 NNO3 ((CH3)4 NNO3). […] The titrant used was 0.1 mol dm^-3 NaOH with a titration amount of 0.005 ml/time.

[8] = Selectivity constant of the ligand for Gd^3+ over Ca^2+; type: physicochemical
[9] = type: physicochemical; settings: pH 7.4, plasma concentrations of Ca^2+, Cu^2+ and Zn^2+
[10] = in vivo; cited from earlier work
[11] = Relaxivity R1 and its pH dependence; settings: pH 6.3 ± 0.1
[12] = read-out: first protonation constant log K1^H, [HL]/[L][H]
[13] = read-out: fourth protonation constant log K4^H, [H4 L]/[H3 L][H]
[14] = read-out: second protonation constant log K2^H, [H2 L]/[HL][H]
[15] = read-out: third protonation constant log K3^H, [H3 L]/[H2 L][H]
[16] = 25.0 ± 0.1° C., aqueous Me4 NNO3, I = 0.10 mol dm^-3

O=C(O)CN(CCN(CC(=O)O)CC(=O)O)CCN(CC(=O)O)CC(=O)O [DTPA, diethylenetriaminepentaacetic acid, reference compound]
pM (Ca^2+) (pM value, Ca^2+): 5.45
pM (Gd^3+) (pM value, Gd^3+): 17.14
pM (Zn^2+) (pM value, Zn^2+): 13.39
pM (Cu^2+) (pM value, Cu^2+): 16.06
conditional stability constant log KGdL' (pH 7.4): 18.14

[Cl][Dy]([Cl])[Cl] [DyCl3]
slope of d.i.s. versus Dy(III) complex concentration ([1]; ^17 O-NMR, FIG. 11): -445.6

O=C(O)CN1CCCN(CC(=O)O)CCN(CC(=O)O)CCN(CC(=O)O)CCN(CC(=O)O)CCCN(CC(=O)O)CCN(CC(=O)O)CCN(CC(=O)O)CC1 [H8 HEC, 1,4,7,10,14,17,20,23-octaazacyclohexacosane-1,4,7,10,14,17,20,23-octaacetic acid]
water solubility of the bimetallic lanthanide complex [2]: higher water solubility

O=C(O)CN1CCN(CC(=O)O)CCN(CC(=O)O)CCN(CC(=O)O)CCN(CC(=O)O)CCN(CC(=O)O)CCN(CC(=O)O)CCN(CC(=O)O)CC1 [H8 OTEC, 1,4,7,10,13,16,19,22-octaazacyclotetracosane-1,4,7,10,13,16,19,22-octaacetic acid]
water solubility of the bimetallic lanthanide complex [2]: higher water solubility

O=C(O)CN(CCCCN(CC(=O)O)CC(=O)O)CCCN(CC(=O)O)CC(=O)O [TTEA, 3,7,12-tri(carboxymethyl)-3,7,12-triazatetradecanedioic acid]
pM (Ca^2+) (pM value, Ca^2+): 7.64
pM (Zn^2+) (pM value, Zn^2+): 13.08
log K [CaHL]/[CaL][H] [3]: 8.2
log K [CaL]/[Ca][L] [3]: 13.48
pM (Cu^2+) (pM value, Cu^2+): 12.63
log K [CuHL]/[CuL][H] [4]: 9.5
log K [CuL]/[Cu][L] [4]: 17.33
log K [ZnHL]/[ZnL][H] [5]: 4.7
log K [ZnL]/[Zn][L] [5]: 19.91
maximum concentration of first protonated species [HL]^4- [6]: 67.2%
maximum concentration of fourth protonated species [H4 L]^- [6]: 45.9%
maximum concentration of second protonated species [H2 L]^3- [6]: 78.8%
maximum concentration of third protonated species [H3 L]^2- [6]: 99.0%
pH of maximum concentration of [H2 L]^3- [6]: 8.6 pH
pH of maximum concentration of [H3 L]^2- [6]: 5.2 pH
pH of maximum concentration of [H4 L]^- [6]: 2.8 pH
pH of maximum concentration of [HL]^4- [6]: 10.1 pH
pH range in which [H2 L]^3- is dominant [6]: 8-9.5 pH
pH range in which [H3 L]^2- is dominant [6]: 3.5-7.5 pH
pH range in which [H4 L]^- is dominant [6]: 2.5-3.5 pH
pH range in which [HL]^4- is dominant [6]: 9.5-11 pH
pH range in which deprotonated species [L]^5- is dominant [6]: greater than 12 pH
pH range in which totally protonated species [H5 L] is dominant [6]: less than 2 pH
basicity, Σ PKa [7]: 30.90
pKa [7, 12]: 10.7
pKa [7, 13]: 3.04
pKa [7, 14]: 9.46
pKa [7, 15]: 7.71
complexation with metal ions, in words: very difficult to complex with metal ions

O=C(O)CN(CCCN(CC(=O)O)CC(=O)O)CCCN(CC(=O)O)CC(=O)O [TTRA, 3,7,11-tri(carboxymethyl)-3,7,11-triazatridecanedioic acid]
selectivity constant log K(Gd/Ca) [8]: 2.37
pM (Ca^2+) (pM value, Ca^2+): 8.20
pM (Gd^3+) (pM value, Gd^3+): 9.80
modified selectivity constant log K sel' [9]: 2.64
pM (Zn^2+) (pM value, Zn^2+): 13.67
log K [CaHL]/[CaL][H] [3]: 8.02
log K [CaL]/[Ca][L] [3]: 13.52
pM (Cu^2+) (pM value, Cu^2+): 13.12
log K [CuHL]/[CuL][H] [4]: 8.68
log K [CuL]/[Cu][L] [4]: 17.92
log K [ZnHL]/[ZnL][H] [5]: 4.15
log K [ZnL]/[Zn][L] [5]: 19.37
maximum concentration of first protonated species [HL]^4- [6]: 71.6%
maximum concentration of fourth protonated species [H4 L]^- [6]: 55.9%
maximum concentration of second protonated species [H2 L]^3- [6]: 86.5%
maximum concentration of third protonated species [H3 L]^2- [6]: 97.7%
pH of maximum concentration of [H2 L]^3- [6]: 8.1 pH
pH of maximum concentration of [H3 L]^2- [6]: 5 pH
pH of maximum concentration of [H4 L]^- [6]: 2.7 pH
pH of maximum concentration of [HL]^4- [6]: 9.9 pH
pH range in which [H2 L]^3- is dominant [6]: 7-9 pH
pH range in which [H3 L]^2- is dominant [6]: 3.5-7 pH
pH range in which [H4 L]^- is dominant [6]: 2-3.5 pH
pH range in which [HL]^4- is dominant [6]: 9.5-10.5 pH
pH range in which deprotonated species [L]^5- is dominant [6]: greater than 12 pH
pH range in which totally protonated species [H5 L] is dominant [6]: less than 2 pH
basicity, Σ PKa [7]: 29.85
pKa [7, 12]: 10.6
pKa [7, 13]: 3.1
pKa [7, 14]: 9.12
pKa [7, 15]: 7
log K [GdHL]/[GdL][H] [16]: 5.95
log K [GdL]/[Gd][L] [16]: 15.89
conditional stability constant log KGdL' (pH 7.4): 10.93

O=C([O-])CN1CCN(CC(=O)[O-])CCN(CC(=O)[O-])CCN(CC(=O)[O-])CC1.[Dy+3] [[Dy(DOTA)]^-]
q (inner-sphere water) ([1]; Dy(III)-induced ^17 O-NMR shift): 0.8
inner-sphere water molecules ([1]; ^17 O-NMR): only one

CNC(=O)CN(CCN(CCN(CC(=O)[O-])CC(=O)NC)CC(=O)[O-])CC(=O)[O-].[Gd+3] [[Gd(DTPA-BMA)], diethylenetriamine pentaacetic acid bis(methylamide)-gadolinium(III)]
modified selectivity constant log K sel' [9]: 9.03
LD50 [10]: 14.8 mmol/kg
conditional stability constant (log Kcond) (pH 4.0): 11.25
stability constant under physiological conditions (pH 7.4) (pH 7.4): 16.95
Relaxivity R1 [11]: 3.74 dm^3 mmol^-1 s^-1 and 3.74 ± 0.05 dm^3 mmol^-1 s^-1
inner-sphere water molecule by X-ray single crystal analysis ([1]; X-ray single crystal analysis): one
